From patent US7521199B2, “Assay to identify estrogen receptor dependent ligands that regulate the hepatic lipase promoter” (Wyeth, priority 2000, dated 2009)
Where two headings read alike, the source gives them in different places.

System: human hepatic lipase (HL) promoter (−1557 to +43) regulated through human estrogen receptor
Assay: Hepatic lipase promoter luciferase reporter assay in HepG2 cells cotransfected with human estrogen receptor and C/EBPα
Assay type: cell-based
Conditions: for Efficacy (%), Hepatic Lipase Inhibition: relative to 100% effect of 17β-estradiol inhibition of HL activity
Experimental: Cell media was replaced every 2-3 days. Confluent cells were rinsed once with phosphate-buffered saline and 5 mL of a prewarmed solution comprised of about 0.05% trypsin, by volume, and about 0.5 mM ethylenediamine tetraacetic acid was added. Cells were left at room temperature for 5 minutes and cells were then dislodged from the flask by tapping the flask 50 times. Trypsinization was halted by the addition of about 8.5 mL of growth cell culture media. Cells were transferred to a test tube and centrifuged at about 300×g for about 5 minutes. Total cells were counted and resuspended at a concentration of about 1×10^7 cells/200 μL of growth cell culture media.
The mixture was transferred to a 0.2 mL BTX disposable cuvette (P/N 620). Cells were electroporated using a BTX ECM 600 (San Diego, Calif.), at 100 V, […] and 72 Ω. Cells were left a room temperature for about 20 minutes. Approximately 20.5 mL of growth cell culture media was added to the cells. Cells were then seeded at about 200 μL per well of a 96 well plate. Cells were then incubated at about 37° C. for 4 hours.
Media was aspirated and replaced with 200 μL deficient media, which was comprised of Phenol Red Free-DMEM (Gibco BRL) supplemented with 1%, by volume, glutamax; 1%, by volume, penicillin/strepomycin; 1%, by volume, non-essential amino acids; and 10%, by volume, heat inactivated, and charcoal-stripped fetal bovine serum, containing varying concentrations of estrogen test compounds. […]
After estrogen treatment, cells were washed with phosphate-buffered saline and lysed with Cell Culture Lysis Reagent (Promega; Madison, Wis.), 50 μL/well, by shaking the plate at room temperature for about 20 minutes. From each well, 35 μL of cell lysate was transferred to a 96 lumat plate. Luciferase activity was determined by addition of 100 μL luciferase substrate and emitted light was detected with a Dentate Microfluor WHT FB using the Luciferase Assay System (Promega; Madison, Wis.). β-galactosidase activity was determined by adding 10 μL of cell lysate and 100 μL β-galactosidase light emission buffer (Tropix; Bedford Mass.) to a lumat plate. β-galactosidase activity was determined with a Microlumat LB 96P (EG&G Berthold). Emitted light, for each assay, was detected for 10 seconds.
Data were collected and analyzed with the JMP statistical program. Background RLU values were subtracted from both the luciferase and β-gal values. The data were normalized by division of the corrected luciferase values by the corrected β-gal values. […] Mean and standard deviations were determined from at least two separate experiments with an n=4 for each experiment.
Luciferase activity was determined in cell lysates.

[1] = transfected HepG2 cells, 16-24 hours treatment
[2] = transfected HepG2 cells, 16-24 hours treatment, luciferase normalized to β-gal, read-out: IC50 (nM), Hepatic Lipase Inhibition

Compound	Efficacy (%), Hepatic Lipase Inhibition [1]	IC50 [2]	IC50 (Homo sapiens, HepG2, read-out: IC50 (nM), Hepatic Lipase Inhibition)
C[C@]12CC[C@H]3C(=CCc4cc(O)ccc43)[C@@H]1CC[C@H]2O [17α-dihydroequilin]	89%	164 nM	
C[C@]12CC[C@@H]3c4ccc(O)cc4CC[C@H]3[C@@H]1CC[C@H]2O [17α-estradiol]	69%	457 nM	
C[C@]12CC[C@H]3C(=CCc4cc(O)ccc43)[C@@H]1CC[C@@H]2O [17β-dihydroequilin]	149%	469 nM	
C[C@]12CC[C@@H]3c4ccc(O)cc4CC[C@H]3[C@@H]1CC[C@@H]2O [17β-estradiol]	100%	88 nM	
C[C@]12CCC3=C(CCc4cc(O)ccc43)[C@@H]1CC[C@@H]2O [17β-Δ8,9-dehydroestradiol]	88%	12 nM	
C[C@]12CCc3c(ccc4cc(O)ccc34)[C@@H]1CCC2=O [equilenin]	82%		38 nM
C[C@]12CCC3=C(CCc4cc(O)ccc43)[C@@H]1CCC2=O [Δ8,9-dehydroestrone]	93%	10 nM	
